Tests used:
Type in all cases: physicochemical
[1] = Evaluation of maximum absorption wavelength (absorption spectrum in tetrahydrofuran solution); settings: 1×10^−6 mol/L
[2] = Evaluation of heat stability (heat resistance), powder heated at 180° C. for 5 minutes; settings: oven 180° C. for 5 minutes, A/A0×100, absorbance in tetrahydrofuran
Method: (§1) Heat stability of each compound was evaluated by the following procedure. 10 mg of the powder of each compound was dissolved in 500 mL of tetrahydrofuran, and the absorption spectrum was measured to obtain a reference absorbance (A0). On the other hand, 10 mg of the powder of each compound was weighed in a 4 cm square aluminum cup, placed in an oven, and heated at 180° C. for 5 minutes. The entire amount of the powder after heating was dissolved in 500 mL of tetrahydrofuran, and the absorption spectrum was measured to obtain an absorbance (A) after the heating test. The residual rate of each compound was calculated by the following expression to evaluate heat stability.
Residual rate of compound (%)=A/A0×100

[3] = Evaluation 2 of heat stability, powder heated at 200° C. for 5 minutes; settings: oven 200° C. for 5 minutes, A2/A0×100, absorbance in tetrahydrofuran
Method: as §1, with “200°” for “180°”, “(A2)” for “(A)”
Residual rate of compound (%)=A2/A0×100

[4] = optical path length 10 mm (Table 7)
[5] = optical path length 10 mm (Table 9)

SMILES	Absorption maximum wavelength [1, 4] [nm]	Molar light absorption coefficient [1, 4]	Residual rate of compound [2] [%]	Residual rate of compound [3] [%]	Absorption maximum wavelength [1, 5] [nm]	Molar light absorption coefficient [1, 5] [L/mol/cm]
CC(C)(C)C1(C)Nc2cccc3c(N=Nc4ccc(N=Nc5ccccc5Cl)c5ccccc45)ccc(c23)N1 (centres unmarked) [(1-8)]	631	35,200 L · mol^−1 · cm^−1	81			
CC1(CO)Nc2cccc3c(N=Nc4ccc(N=Nc5ccccc5Cl)c5ccccc45)ccc(c23)N1 (centres unmarked) [(1-17)]	622	33,100 L · mol^−1 · cm^−1	89			
CCCCC(CC)C(=O)OCC1(C)Nc2cccc3c(N=Nc4ccc(N=Nc5ccccc5Cl)c5ccccc45)ccc(c23)N1 (centres unmarked) [(1-20)]	623	33,800 L · mol^−1 · cm^−1	84			
CC1CCCCC12Nc1cccc3c(N=Nc4ccc(N=Nc5ccccc5Cl)c5ccccc45)ccc(c13)N2 (centres unmarked) [(1-27)]	629	34,800 L · mol^−1 · cm^−1	81			
CC1(C)Nc2cccc3c(N=Nc4ccc(N=Nc5ccccc5C#N)c5ccccc45)ccc(c23)N1 [(1-38)]	648	28,900 L · mol^−1 · cm^−1	92			
COC(=O)c1ccccc1N=Nc1ccc(N=Nc2ccc3c4c(cccc24)NC(C)(C)N3)c2ccccc12 [(1-40)]	599	26,600 L · mol^−1 · cm^−1	80			
CCCCCC1(C)Nc2cccc3c(N=Nc4ccc(N=Nc5ccccc5C(C)=O)c5ccccc45)ccc(c23)N1 (centres unmarked) [(1-50)]	629	34,900 L · mol^−1 · cm^−1	98			
CC1(C)Nc2cccc3c(N=Nc4ccc(N=Nc5ccccc5C(=O)c5ccccc5)c5ccccc45)ccc(c23)N1 [(1-59)]	639	35,700 L · mol^−1 · cm^−1	82			
CC1(CC#N)Nc2cccc3c(N=Nc4ccc(N=Nc5ccccc5Cl)c5ccccc45)ccc(c23)N1 (centres unmarked) [(1-61)]	604	34,100 L · mol^−1 · cm^−1	77			
CC1(CC(N)=O)Nc2cccc3c(N=Nc4ccc(N=Nc5ccccc5Cl)c5ccccc45)ccc(c23)N1 (centres unmarked) [(1-62)]	607	34,200 L · mol^−1 · cm^−1	74			
CC1(Cc2ccccc2)Nc2cccc3c(N=Nc4ccc(N=Nc5ccccc5Cl)c5ccccc45)ccc(c23)N1 (centres unmarked) [(1-64)]	631	36,800 L · mol^−1 · cm^−1	73			
CC1(C)Nc2cccc3ccc(N=Nc4ccc(N=Nc5ccccc5Cl)c5ccccc45)c(c23)N1 [(3-1)]				83	612	36300
CC1(C)Nc2cccc3ccc(N=Nc4ccc(N=Nc5ccccc5F)c5ccccc45)c(c23)N1 [(3-2)]				85	608	36000
CC1(C)Nc2cccc3ccc(N=Nc4ccc(N=Nc5ccccc5C#N)c5ccccc45)c(c23)N1 [(3-4)]				88	638	30500
CC1(C)Nc2cccc3ccc(N=Nc4ccc(N=Nc5ccccc5[N+](=O)[O-])c5ccccc45)c(c23)N1 [(3-5)]				95	627	32100
CC(=O)c1ccccc1N=Nc1ccc(N=Nc2ccc3cccc4c3c2NC(C)(C)N4)c2ccccc12 [(3-6)]				96	615	36100
CCCCC1(C)Nc2cccc3ccc(N=Nc4ccc(N=Nc5ccccc5Cl)c5ccccc45)c(c23)N1 (centres unmarked) [(3-8)]				87	616	35800
CC(C)C1(C)Nc2cccc3ccc(N=Nc4ccc(N=Nc5ccccc5Cl)c5ccccc45)c(c23)N1 (centres unmarked) [(3-9)]				85	614	35500
CC1(C)Nc2cccc3c(N=Nc4ccc(N=Nc5cccc(F)c5)c5ccccc45)ccc(c23)N1 [Comparative compound A, reference compound]			63			
CC1(C)Nc2cccc3c(N=Nc4ccc(N=Nc5ccc(F)cc5)c5ccccc45)ccc(c23)N1 [Comparative compound B, reference compound]			64			
CCCC1(C)Nc2cccc3c(N=Nc4ccc(N=Nc5ccccc5Cl)c5ccccc45)ccc(c23)N1 (centres unmarked) [Compound (1-3)]	629	34,400 L · mol^−1 · cm^−1	82			

Continued, values first:

Absorption maximum wavelength [1, 4] [nm]	Molar light absorption coefficient [1, 4]	Residual rate of compound [2] [%]	Residual rate of compound [3] [%]	Absorption maximum wavelength [1, 5] [nm]	Molar light absorption coefficient [1, 5] [L/mol/cm]	SMILES
624	34,500 L · mol^−1 · cm^−1	85				CC1(C)Nc2cccc3c(N=Nc4ccc(N=Nc5ccccc5Cl)c5ccccc45)ccc(c23)N1 [(1-1)]
627	34,000 L · mol^−1 · cm^−1	84				CCC1(C)Nc2cccc3c(N=Nc4ccc(N=Nc5ccccc5Cl)c5ccccc45)ccc(c23)N1 (centres unmarked) [(1-2)]
631	33,000 L · mol^−1 · cm^−1	84				CC(C)C1(C)Nc2cccc3c(N=Nc4ccc(N=Nc5ccccc5Cl)c5ccccc45)ccc(c23)N1 (centres unmarked) [(1-4)]
629	35,100 L · mol^−1 · cm^−1	81				CCCCC1(C)Nc2cccc3c(N=Nc4ccc(N=Nc5ccccc5Cl)c5ccccc45)ccc(c23)N1 (centres unmarked) [(1-5)]
629	35,900 L · mol^−1 · cm^−1	84				CCCCCC1(C)Nc2cccc3c(N=Nc4ccc(N=Nc5ccccc5Cl)c5ccccc45)ccc(c23)N1 (centres unmarked) [(1-9)]
623	33,900 L · mol^−1 · cm^−1	84				CC(C)NC(=O)OCC1(C)Nc2cccc3c(N=Nc4ccc(N=Nc5ccccc5Cl)c5ccccc45)ccc(c23)N1 (centres unmarked) [(1-21)]
619	35,000 L · mol^−1 · cm^−1	90				CC1(C)Nc2cccc3c(N=Nc4ccc(N=Nc5ccccc5F)c5ccccc45)ccc(c23)N1 [(1-31)]
621	32,800 L · mol^−1 · cm^−1	74				CC1(C)Nc2cccc3c(N=Nc4ccc(N=Nc5ccccc5Br)c5ccccc45)ccc(c23)N1 [(1-34)]
			86	586	29200	COC(=O)c1ccccc1N=Nc1ccc(N=Nc2ccc3cccc4c3c2NC(C)(C)N4)c2ccccc12 [(3-3)]
			88	615	34800	CCCCCC1(C)Nc2cccc3ccc(N=Nc4ccc(N=Nc5ccccc5Cl)c5ccccc45)c(c23)N1 (centres unmarked) [(3-10)]
